From article PMC11079024, “Identification of a family of species-selective complex I inhibitors as potential anthelmintics” (Nature Communications, 2024)
Where “and” joins values, the source holds several entries; their conditions need not be identical. Identical values can stand only once. Like-named read-outs stand apart in the source and are kept apart here.

Columns and labels:
[1] = tested on: adult H. polygyrus; experiment: microbe, parasite or virus in culture; assay type: cell-based, Heligmosomoides polygyrus; details: anaerobic, 24 hours after treatment; for killing at 10 µM: Heligmosomoides polygyrus, 24 h, adult H. polygyrus, affected = score equal to or lower than 1.5, read-out: Percent Worms Affected; for # of Worms Affected: worms with score equal to or lower than 1.5
Description: To investigate the impact of the eleven benzimidazole derivatives under anaerobic conditions, an anaerobic chamber with an integrated incubator (Coy Laboratory Products, USA) was used. The same procedure was followed as described for the aerobic drug screening in adult H. polygyrus, but the incubation took place within the anaerobic chamber (37 °C, 85% N2, 10% CO2, 5% H2). Benzimidazole derivatives were tested at a concentration of 10 µM. For scoring, the plates had to be removed from the anaerobic chamber. The whole experiment was performed two times i.e., two independent biological replicates.
The activities of eleven benzimidazole derivatives were tested against adult H. polygyrus viability in vitro under aerobic (+, white boxplots) and anaerobic (–, coloured boxplots) conditions (see Methods). After 24-hour chemical treatment, worm viability was manually scored by an examiner using a scale from 0 (dead) to 3 (motile); DMSO was used as a negative control in both aerobic and anaerobic conditions; levamisole was used as a positive control in anaerobic conditions. The percentage of affected worms (i.e., worms with a score equal to or lower than 1.5) in each biological replicate is shown; data are from two biological replicates. Within each boxplot, black horizontal lines denote group medians, boxes span from the 25th to the 75th percentile of each group’s distribution, and whiskers extend to the maximum and minimum values. […]

[2] = tested on: anthelmintic/nematicide-resistant C. elegans mutant strains; experiment: microbe, parasite or virus in culture; details: for LC50: Caenorhabditis elegans; for dose response data: mev-1 (tr355)
Text: In addition to the Caenorhabditis elegans wild-type N2 strain, this work included the following C. elegans strains: CB1003 (kynu-1(e1003) X); anthelmintic-resistant strains—CB3474 (ben-1(e1880) III), CB193 (unc-29(e193) I), HY496 (bre-1(ye4) IV), RB2119 (acr-23(ok2804) V), JD608 (avr-14(ad1302) I; avr-15(ad1051) V; glc-1 (pk54) V), NM1968 (slo-1(js379) V), RP2635 (mev-1(tr355) III); benzimidazole-resistant CRISPR strains—ECA882 (ben-1(ean64) III), ECA917 (ben-1(ean98) III), ECA1075 (ben-1(ean143) III), ECA1080 (ben-1(ean148) III). This work also featured several additional free-living nematode strains: C. briggsae strain AF16, P. pacificus strain PS312, and P. hermaphrodita strain B178. The four CRISPR-generated benzimidazole-resistant C. elegans mutants were generously provided by Prof. Erik Andersen (Johns Hopkins University); PS312 and B178 were generously provided by Prof. Peter Roy (University of Toronto); all other strains were obtained from the Caenorhabditis Genetics Center (CGC, University of Minnesota). All strains were cultured and propagated at 20 °C on NGM (nematode growth medium) agar plates seeded with E. coli OP50 (Stiernagle, 2006)[56].
Liquid development and viability assays were adapted from a previously established chemical screening protocol (Burns et al.)[24]. In brief, a saturated culture of E. coli HB101 was concentrated 2-fold in liquid NGM and 40 μL of this suspension was distributed to each well of a 96-well flat-bottom culture plate. 0.5 μL chemical solution (or DMSO alone) was added to each well (1% DMSO v/v) using either a multi-channel pipette or a pinning tool (V&P Scientific). L1 worms synchronized from an embryo preparation performed the day prior were diluted to a concentration of ~2 worms/μL in M9 buffer; 10 μL worm suspension was then added to each well. Culture plates were sealed with parafilm and placed in a plastic container lined with wet paper towels to prevent evaporation. Containers were then incubated for 6 days at 20 °C with shaking at 165 rpm. Following incubation, 300 μL M9 was added to each well to decrease the turbidity of the HB101-NGM suspension. Single images of each microplate well were then taken on a Nikon Ti Eclipse inverted microscope (Nikon NIS Elements AR). Images were processed using Python scripts to isolate worm-associated pixels from background. Scores of worm development and viability were determined as the sum of worm-associated pixels in each well. Development/viability scores for each well were divided by the development /viability scores for the corresponding DMSO controls, resulting in a relative viability value for each chemical. At least three biological replicates were performed for each dose-response experiment; relative viability values were averaged across replicates.
Supplementary Table 2. Sensitivity of anthelmintic/nematicide-resistant strains to Class A, B, and C
benzimidazole complex I inhibitors.
LC50s were estimated from fitted dose-
response curves; all dose response data are the mean of at least three biological replicates.
Supplementary Table 2. Davie et al.

Cc1nc2ccccc2n1Cc1ccc(Br)cc1 [Compound 5567167]
killing at 10 µM ([1]; replicate 1): 50%
killing at 10 µM ([1]; replicate 2): 67%
# of Worms Affected ([1]; replicate 1): 3
# of Worms Affected ([1]; replicate 2): 4

Cc1nc2ccccc2n1Cc1ccccc1Cl [Compound 6707368]
killing at 10 µM ([1]; replicate 1): 100%
killing at 10 µM ([1]; replicate 2): 33%
# of Worms Affected ([1]; replicate 1): 6
# of Worms Affected ([1]; replicate 2): 2

Clc1ccc(Cn2cnc3ccccc32)c(Cl)c1 [Compound 6750659]
killing at 10 µM ([1]; replicate 1): 50%
killing at 10 µM ([1]; replicate 2): 67%
# of Worms Affected ([1]; replicate 1): 3
# of Worms Affected ([1]; replicate 2): 4

Cc1ccccc1OCCCCn1cnc2ccccc21 [Compound 7732524]
killing at 10 µM ([1]; replicate 1): 60%
killing at 10 µM ([1]; replicate 2): 0%
# of Worms Affected ([1]; replicate 1): 3
# of Worms Affected ([1]; replicate 2): 0
LC50 ([2]; read-out: C. elegans Development & Viability LC50, acr-23(ok2804)): 50.2 µM
LC50 ([2]; read-out: C. elegans Development & Viability LC50, avr-14(ad1302), avr-15(ad1051), glc-1(pk54)): 46.5 µM
LC50 ([2]; read-out: C. elegans Development & Viability LC50, ben-1(e1880)): 50 µM
LC50 ([2]; read-out: C. elegans Development & Viability LC50, bre-1(ye4)): 41.2 µM
LC50 ([2]; read-out: C. elegans Development & Viability LC50, mev-1(tr355)): 42.9 µM
LC50 ([2]; read-out: C. elegans Development & Viability LC50, slo-1(js379)): 31.4 µM
LC50 ([2]; read-out: C. elegans Development & Viability LC50, unc-29(e193)): 37.8 µM
dose response data ([2]; concentration step 1 of 13 (c108)): 0.998 and 1.000
dose response data ([2]; concentration step 3 of 13 (c110)): 0.989 and 1.000
dose response data ([2]; concentration step 4 of 13 (c111)): 1.000 and 0.845
dose response data ([2]; concentration step 5 of 13 (c112)): 1.000 and 0.955
dose response data ([2]; concentration step 6 of 13 (c113)): 1.000 and 0.835
dose response data ([2]; concentration step 7 of 13 (c114)): 1.000
dose response data ([2]; concentration step 8 of 13 (c115)): 1.000 and 0.746

Clc1ccc(SCCCCn2cnc3ccccc32)cc1 [Compound 7925515]
killing at 10 µM ([1]; replicate 1): 100%
killing at 10 µM ([1]; replicate 2): 83%
# of Worms Affected ([1]; replicate 1): 5
# of Worms Affected ([1]; replicate 2): 5

Clc1ccccc1OCCCCn1cnc2ccccc21 [Compound 7925804]
killing at 10 µM ([1]; replicate 1): 50%
# of Worms Affected ([1]; replicate 1): 3
# of Worms Affected ([1]; replicate 2): 6
Worm viability score, individual worms (Worm1-Worm20) ([1]; replicate 2, scale from 0 (dead) to 3 (motile)): 2 (3×) and 1.5 (2×) and 1

CCn1c(C(C)c2ccc(CC(C)C)cc2)nc2ccccc21 (stereo not drawn) [STK951902]
killing at 10 µM ([1]; replicate 1): 100%
killing at 10 µM ([1]; replicate 2): 67%
# of Worms Affected ([1]; replicate 1): 6
# of Worms Affected ([1]; replicate 2): 4

CC(C)Cc1ccc(C(C)c2nc3ccccc3n2C(C)C)cc1 (stereo not drawn) [STK951903]
killing at 10 µM ([1]; replicate 1): 67%
killing at 10 µM ([1]; replicate 2): 83%
# of Worms Affected ([1]; replicate 1): 4
# of Worms Affected ([1]; replicate 2): 5

COC(=O)Nc1nc2ccc(C(=O)c3ccccc3)cc2[nH]1 [mebendazole, reference compound]
C. elegans L1 relative development & viability ([2]; CB3474 G104D (ben-1), 1 µM, score 0-1 relative to DMSO, values >1 set to 1): 1.000
C. elegans L1 relative development & viability ([2]; CB3474 G104D (ben-1), 2 µM, score 0-1 relative to DMSO, values >1 set to 1): 1.000
C. elegans L1 relative development & viability ([2]; CB3474 G104D (ben-1), 3.9 µM, score 0-1 relative to DMSO, values >1 set to 1): 1.000
C. elegans L1 relative development & viability ([2]; CB3474 G104D (ben-1), 15.6 µM, score 0-1 relative to DMSO, values >1 set to 1): 1.000
C. elegans L1 relative development & viability ([2]; CB3474 G104D (ben-1), 31.3 µM, score 0-1 relative to DMSO, values >1 set to 1): 1.000
C. elegans L1 relative development & viability ([2]; CB3474 G104D (ben-1), 62.5 µM, score 0-1 relative to DMSO, values >1 set to 1): 1.000
C. elegans L1 relative development & viability ([2]; CB3474 G104D (ben-1), 125 µM, […]): 0.918
C. elegans L1 relative development & viability ([2]; CB3474 G104D (ben-1), 250 µM, […]): 0.816
C. elegans L1 relative development & viability ([2]; ECA917 F200Y (ben-1), 1 µM, score 0-1 relative to DMSO, values >1 set to 1): 1.000
C. elegans L1 relative development & viability ([2]; ECA917 F200Y (ben-1), 2 µM, score 0-1 relative to DMSO, values >1 set to 1): 1.000
C. elegans L1 relative development & viability ([2]; ECA917 F200Y (ben-1), 3.9 µM, score 0-1 relative to DMSO, values >1 set to 1): 1.000
C. elegans L1 relative development & viability ([2]; ECA917 F200Y (ben-1), 15.6 µM, score 0-1 relative to DMSO, values >1 set to 1): 1.000
C. elegans L1 relative development & viability ([2]; ECA917 F200Y (ben-1), 31.3 µM, […]): 0.958
C. elegans L1 relative development & viability ([2]; ECA917 F200Y (ben-1), 62.5 µM, […]): 0.687
C. elegans L1 relative development & viability ([2]; ECA917 F200Y (ben-1), 125 µM, […]): 0.515
C. elegans L1 relative development & viability ([2]; ECA917 F200Y (ben-1), 250 µM, […]): 0.575
C. elegans L1 relative development & viability ([2]; ECA1075 F167Y (ben-1), 1 µM, score 0-1 relative to DMSO, values >1 set to 1): 1.000
C. elegans L1 relative development & viability ([2]; ECA1075 F167Y (ben-1), 2 µM, score 0-1 relative to DMSO, values >1 set to 1): 1.000
C. elegans L1 relative development & viability ([2]; ECA1075 F167Y (ben-1), 3.9 µM, score 0-1 relative to DMSO, values >1 set to 1): 1.000
C. elegans L1 relative development & viability ([2]; ECA1075 F167Y (ben-1), 15.6 µM, score 0-1 relative to DMSO, values >1 set to 1): 1.000
C. elegans L1 relative development & viability ([2]; ECA1075 F167Y (ben-1), 31.3 µM, […]): 0.936
C. elegans L1 relative development & viability ([2]; ECA1075 F167Y (ben-1), 62.5 µM, […]): 0.436
C. elegans L1 relative development & viability ([2]; ECA1075 F167Y (ben-1), 125 µM, […]): 0.502
C. elegans L1 relative development & viability ([2]; ECA1075 F167Y (ben-1), 250 µM, […]): 0.324
C. elegans L1 relative development & viability ([2]; ECA1080 E198A (ben-1), 1 µM, score 0-1 relative to DMSO, values >1 set to 1): 1.000
C. elegans L1 relative development & viability ([2]; ECA1080 E198A (ben-1), 2 µM, score 0-1 relative to DMSO, values >1 set to 1): 1.000
C. elegans L1 relative development & viability ([2]; ECA1080 E198A (ben-1), 3.9 µM, score 0-1 relative to DMSO, values >1 set to 1): 1.000
C. elegans L1 relative development & viability ([2]; ECA1080 E198A (ben-1), 15.6 µM, score 0-1 relative to DMSO, values >1 set to 1): 1.000
C. elegans L1 relative development & viability ([2]; ECA1080 E198A (ben-1), 31.3 µM, score 0-1 relative to DMSO, values >1 set to 1): 1.000
C. elegans L1 relative development & viability ([2]; ECA1080 E198A (ben-1), 62.5 µM, […]): 0.746
C. elegans L1 relative development & viability ([2]; ECA1080 E198A (ben-1), 125 µM, […]): 0.386
C. elegans L1 relative development & viability ([2]; ECA1080 E198A (ben-1), 250 µM, […]): 0.470
